Data taken from US9579303B2, “Compositions containing polysaccharides” (DSM IP ASSETS B.V., priority 2005, dated 2017).

Legend:
[1] = Flowability: time for 100 g to flow through an 11-mm funnel orifice; type: physicochemical; settings: 100 g through an 11-mm orifice of a funnel
Experimental: The flowability was determined by the time needed to have 100 g of genistein crystals or genistein granules flowing through an 11-mm orifice of a funnel.

[2] = Granule size distribution by sieve analysis; type: physicochemical

O=c1c(-c2ccc(O)cc2)coc2cc(O)cc(O)c12 [Genistein crystal, genistein]
Flowability [1]: No flow
Granule Particle Size Distribution <150 μm ([2]; sieve fraction <150 μm): 7.2%
Granule Particle Size Distribution >150 μm ([2]; sieve fraction >150 μm): 28.2%
Granule Particle Size Distribution >250 μm ([2]; sieve fraction >250 μm): 50%
Granule Particle Size Distribution >425 μm ([2]; sieve fraction >425 μm): 14.5%
Granule Particle Size Distribution >600 μm ([2]; sieve fraction >600 μm): 0%
Granule Particle Size Distribution >800 μm ([2]; sieve fraction >800 μm): 0%
Granule Particle Size Distribution >850 μm ([2]; sieve fraction >850 μm): 0.1%
